In PubChem BioAssay (NCI):
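Each compound was tested at five concentrations against cells in 96-well plates for 48 hours. Abbreviation: GI50, concentration required for 50% inhibition of growth. TGI: concentration producing complete growth inhibition.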

Tests used:
Assay in all cases: NCI-60 cell line screen, 48 h
[1] = tested on: A549 NSCLC
[2] = tested on: OVCAR-5 ovarian
[3] = tested on: CAKI-1 renal
[4] = tested on: SK-MEL-28 melanoma
[5] = tested on: UACC-257 melanoma
[6] = tested on: ACHN renal
[7] = tested on: T-47D breast
[8] = tested on: SR leukemia
[9] = tested on: A498 renal
[10] = tested on: HCT-116 colon
[11] = tested on: OVCAR-8 ovarian
[12] = tested on: 786-0 renal
[13] = tested on: HT29 colon
[14] = tested on: HOP-92 NSCLC
[15] = tested on: CCRF-CEM leukemia
[16] = tested on: SNB-19 CNS
[17] = tested on: SW-620 colon
[18] = tested on: BT-549 breast
[19] = tested on: NCI-H23 lung
[20] = tested on: HL-60(TB) leukemia
[21] = tested on: HS 578T breast
[22] = tested on: OVCAR-3 ovarian
[23] = tested on: UACC-62 melanoma
[24] = tested on: RPMI-8226 leukemia
[25] = tested on: TK-10 renal
[26] = tested on: COLO 205 colon
[27] = tested on: MDA-MB-231 breast
[28] = tested on: SN12C renal
[29] = tested on: SF-268 CNS

O1[As]2O[As]3O[As]1O[As](O2)O3
GI50 [1]: 3290 nM | TGI [1]: 14900 nM | GI50 [2]: 1410 nM | TGI [2]: 5320 nM | GI50 [3]: 567 nM | TGI [3]: 3130 nM | GI50 [4]: 1020 nM | TGI [4]: 2450 nM | GI50 [5]: 1500 nM | TGI [5]: 3240 nM | GI50 [6]: 2540 nM | TGI [6]: 11200 nM | GI50 [7]: 474 nM | TGI [7]: 12600 nM | GI50 [8]: 295 nM | TGI [8]: 3700 nM | GI50 [9]: 87.5 nM | TGI [9]: 352 nM | GI50 [10]: 1270 nM | TGI [10]: 2800 nM | GI50 [11]: 1890 nM | TGI [11]: 13600 nM | GI50 [12]: 528 nM | TGI [12]: 1820 nM | GI50 [13]: 876 nM | TGI [13]: 4670 nM | GI50 [14]: 238 nM | TGI [14]: 897 nM | GI50 [15]: 161 nM | TGI [15]: 1110 nM | GI50 [16]: 1650 nM | TGI [16]: 4440 nM | GI50 [17]: 577 nM | TGI [17]: 4540 nM | GI50 [18]: 278 nM | TGI [18]: 903 nM | GI50 [19]: 733 nM | TGI [19]: 4980 nM | GI50 [20]: 344 nM | TGI [20]: 1730 nM | GI50 [21]: 981 nM | TGI [21]: > 42500 nM | GI50 [22]: 283 nM | TGI [22]: 720 nM | GI50 [23]: 574 nM | TGI [23]: 2180 nM | GI50 [24]: 290 nM | TGI [24]: 2890 nM | GI50 [25]: 2310 nM | TGI [25]: 9500 nM | GI50 [26]: 1670 nM | TGI [26]: 4500 nM | GI50 [27]: 648 nM | TGI [27]: 2960 nM | GI50 [28]: 881 nM | TGI [28]: 4790 nM | GI50 [29]: 456 nM | TGI [29]: 1860 nM
